In patent publication US4599336A, “Derivatives of (E)-3-(4-oxo-4H-quinazolin-3-yl)-2-propenamide” (Hoffmann-La Roche Inc., priority 1983, dated 1986):

Legend:
[1] = biological target: T1, PAF receptor (dog platelets) (Canis lupus familiaris, UniProt A0A8I3NSH0); assay: PAF Radioreceptor Binding Assay; settings: 3H-PAF
T1 construct: followed by 2×10^7 dog platelets; from tissue; host or cells: dog platelets, washed, intact
T1 sequence (A0A8I3NSH0 1-343): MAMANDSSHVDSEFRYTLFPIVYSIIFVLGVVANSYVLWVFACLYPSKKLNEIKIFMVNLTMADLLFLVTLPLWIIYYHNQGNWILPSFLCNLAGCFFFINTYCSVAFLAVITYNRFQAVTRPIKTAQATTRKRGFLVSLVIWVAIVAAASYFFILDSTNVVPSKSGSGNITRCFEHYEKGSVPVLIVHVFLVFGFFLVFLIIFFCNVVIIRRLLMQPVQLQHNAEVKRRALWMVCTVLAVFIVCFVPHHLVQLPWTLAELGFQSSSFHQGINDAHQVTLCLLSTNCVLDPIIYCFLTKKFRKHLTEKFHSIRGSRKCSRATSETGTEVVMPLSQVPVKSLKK
Description: Platelet rich plasma is prepared by centrifugation of citrate-treated dog blood. Acidification to pH 6.5 with 0.15M citric acid and centrifugation for 10 minutes at 1000 g yields a platelet pellet which is then washed by resuspension in EDTA-Phosphate Buffered Saline (PBS) and recentrifuged. The washed platelet preparation is adjusted to 2×10^7 platelets/50 μl in 0.1% BSA-PBS.
To a […] microfuge tube containing 50 μl silicone oil (specific gravity 1.023) is added buffer, PAF standard or analog, or an extract to bring the aqueous volume to 150 μl. 50 μl of ^3 H-PAF (10,000 cpm, 45 Ci/mM) is added followed by 2×10^7 dog platelets. After mixing, incubating for 10 minutes at room temperature, and centrifuging for 1 minute in a Beckman Microfuge B (8000 g), the pellet is removed by clipping off the tip of the tube, solubilizing the platelets with 200 μl of 50% methanol, and counting in 10 ml of Aquasol. […] Results obtained with representative compounds of the present invention in this assay are summarized hereinafter in Table I.

TXA2 synthase = biological target: T2, TXA2 synthase (Homo sapiens, UniProt P24557); assay: Thromboxane Synthase Inhibition, In Vitro; assay type: biochemical; settings: human platelet microsomes; for inhibition at 0.1 µM: at 10^-7 M
T2 construct: using microsomal fractions from human platelets as enzyme source; from tissue; host or cells: human platelets, microsomal fraction
T2 sequence (P24557 1-533): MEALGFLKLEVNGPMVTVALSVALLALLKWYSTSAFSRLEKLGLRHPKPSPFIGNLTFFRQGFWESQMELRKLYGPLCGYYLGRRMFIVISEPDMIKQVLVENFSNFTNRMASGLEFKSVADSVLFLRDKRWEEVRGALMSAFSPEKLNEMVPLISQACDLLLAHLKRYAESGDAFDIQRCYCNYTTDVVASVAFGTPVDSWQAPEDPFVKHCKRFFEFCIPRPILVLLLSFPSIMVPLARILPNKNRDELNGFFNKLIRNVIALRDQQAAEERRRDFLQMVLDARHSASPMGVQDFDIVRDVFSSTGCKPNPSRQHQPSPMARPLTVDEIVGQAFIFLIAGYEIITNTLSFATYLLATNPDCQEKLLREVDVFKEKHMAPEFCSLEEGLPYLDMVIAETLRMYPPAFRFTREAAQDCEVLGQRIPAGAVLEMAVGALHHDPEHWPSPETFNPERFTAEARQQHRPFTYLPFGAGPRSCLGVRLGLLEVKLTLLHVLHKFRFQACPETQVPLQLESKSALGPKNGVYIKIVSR
Description: TXA2 synthase activity is measured by following the conversion of ^14 C-prostaglandin endoperoxide (PGH2) to ^14 C-thromboxane A2 (TXA2) using microsomal fractions from human platelets as enzyme source. In the aqueous incubation medium, the TXA2 decomposes rapidly into TXB2. The amount of TXA2 synthase is adjusted so that under the conditions of the assay approximately 80-90% of the substrate, PGH2, is converted to product in control tubes. To prepare ^14 C--PGH2, ^14 C--AA (50-60 mCi/mmole; Rose Chem.) is incubated with sheep seminal vesicular gland microsomes for 1.5 minutes at 37° C. and then the ^14 C--PGH2 is extracted with diethylether, purified on columns of Sephadex LH-20 or silicic acid, and stored in acetone at -70° C. Incubations are done as follows. Sufficient ^14 C--PGH2 to yield a final substrate concentration of 10 μM (30,000 cpm) is added to the incubation tubes and then the acetone is removed under nitrogen. The tubes are placed in an ice bath and then 215 μl of ice cold phosphate buffered saline, 10 μl of ethanol (control) or of test drug in ethanol, and 25 μl of the microsomal suspension are added with mixing in that order as rapidly as possible. The tubes are incubated at 22° C. for 2 minutes, the reaction is stopped and then the radioactive products and the uncoverted PGH2 are extracted and analyzed by thin layer chromatography. […] The amount of ^14 C--PGH2 converted to products was used as a measure of TXA2 synthase activity. Inhibitors were tested initially at a final concentration of 100 μM. Results obtained with representative compounds of the present invention in this assay are summarized hereafter in Table I.

| Compound | IC50 [1] [nM] | inhibition at 0.1 µM (TXA2 synthase) [%] | IC50 (TXA2 synthase; read-out: TXA2 Synthase Inhibition (concentration bound printed in the % column)) [nM] |
| --- | --- | --- | --- |
| CC(C)c1ccc2ncn(/C=C/C(=O)NCCCCn3ccnc3)c(=O)c2c1 [drawing 15] | > 1000 | 72 | – |
| CC(C)c1ccc2ncn(/C=C/C(=O)NCCCCc3ccccn3)c(=O)c2c1 [drawing 17] | > 1000 | – | > 10000 |
| CC(C)c1ccc2ncn(/C=C/C(=O)NCCCCc3cccnc3)c(=O)c2c1 [drawing 12] | 650 | 48 | – |
